Experimental data taken from ChEMBL document CHEMBL1201862, “PubChem BioAssay data set” (2004).
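Exposure lasted 48 hours, with cells grown in 96-well plates and compounds tested at five concentrations. GI50: concentration for 50% inhibition of growth.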 Active and inactive are the calls of the source. Rule as the data show it: active = GI50 up to about 1.1 µM and inactive = higher.

How the values were obtained:
Assay in all cases: DTP human tumour cell line panel, 48 h
HOP-62 = system: HOP-62
ACHN = system: ACHN
RXF 393 = system: RXF 393
SK-MEL-2 = system: SK-MEL-2
RPMI-8226 = system: RPMI-8226
U-251 = system: U-251
786-0 = system: 786-0
SF-295 = system: SF-295
SNB-19 = system: SNB-19
MDA-MB-231 = system: MDA-MB-231
IGROV-1 = system: IGROV-1
Hs-578T = system: Hs-578T
TK-10 = system: TK-10
NCI-H23 = system: NCI-H23
Malme-3M = system: Malme-3M
CCRF-CEM = system: CCRF-CEM
LOX IMVI = system: LOX IMVI
T47D = system: T47D
SR = system: SR
OVCAR-4 = system: OVCAR-4
MDA-N = system: MDA-N
MOLT-4 = system: MOLT-4
DU-145 = system: DU-145
NCI-H460 = system: NCI-H460
HCT-116 = system: HCT-116
HL-60 = system: HL-60
HT-29 = system: HT-29
SF-539 = system: SF-539
SK-MEL-5 = system: SK-MEL-5
HCC 2998 = system: HCC 2998
COLO 205 = system: COLO 205
OVCAR-8 = system: OVCAR-8
BT-549 = system: BT-549
OVCAR-5 = system: OVCAR-5
UACC-62 = system: UACC-62
UO-31 = system: UO-31
SK-OV-3 = system: SK-OV-3
HCT-15 = system: HCT-15
K562 = system: K562
UACC-257 = system: UACC-257
SF-268 = system: SF-268
SNB-75 = system: SNB-75
NCI/ADR-RES = system: NCI/ADR-RES
PC-3 = system: PC-3
CAKI-1 = system: CAKI-1
EKVX = system: EKVX
NCI-H226 = system: NCI-H226
M14 = system: M14
NCI-H522 = system: NCI-H522
MCF7 = system: MCF7
SN12C = system: SN12C
A549 = system: A549
SK-MEL-28 = system: SK-MEL-28
SW-620 = system: SW-620
A498 = system: A498
MDA-MB-435 = system: MDA-MB-435
KM12 = system: KM12
HOP-92 = system: HOP-92
OVCAR-3 = system: OVCAR-3

Measured: GI50

CP(C)(=S)P(C)(C)=S
> 100 µM: HCT-15
inactive: HOP-62 > 100 µM | ACHN > 100 µM | RXF 393 > 100 µM | SK-MEL-2 > 100 µM | RPMI-8226 > 100 µM | U-251 > 100 µM | 786-0 > 100 µM | SF-295 > 100 µM | SNB-19 > 100 µM | MDA-MB-231 > 100 µM | IGROV-1 78.5 µM | Hs-578T > 100 µM | TK-10 > 100 µM | NCI-H23 > 100 µM | Malme-3M > 100 µM | CCRF-CEM > 100 µM | LOX IMVI 4.37 µM | T47D > 100 µM | SR > 100 µM | OVCAR-4 > 100 µM | MDA-N > 100 µM | MOLT-4 > 100 µM | DU-145 > 100 µM | NCI-H460 > 100 µM | HCT-116 > 100 µM | HL-60 > 100 µM | HT-29 > 100 µM | SF-539 > 100 µM | SK-MEL-5 > 100 µM | HCC 2998 > 100 µM | COLO 205 > 100 µM | OVCAR-8 > 100 µM | BT-549 > 100 µM | OVCAR-5 > 100 µM | UACC-62 > 100 µM | UO-31 > 100 µM | SK-OV-3 > 100 µM | K562 > 100 µM | UACC-257 > 100 µM | SF-268 > 100 µM | SNB-75 > 100 µM | NCI/ADR-RES > 100 µM | PC-3 > 100 µM | CAKI-1 > 100 µM | EKVX > 100 µM | NCI-H226 > 100 µM | M14 > 100 µM | NCI-H522 > 100 µM | MCF7 > 100 µM | SN12C > 100 µM | A549 > 100 µM | SK-MEL-28 > 100 µM | SW-620 > 100 µM

Cc1cc(N)c2cc(NC(=O)Nc3ccc4nc(C)cc(N)c4c3)ccc2n1
> 100 µM: HCT-15
inactive: HOP-62 61.8 µM | ACHN > 100 µM | SK-MEL-2 > 100 µM | RPMI-8226 > 100 µM | U-251 70.6 µM | A498 > 100 µM | 786-0 > 100 µM | SF-295 89.5 µM | SNB-19 > 100 µM | MDA-MB-231 47.8 µM | IGROV-1 > 100 µM | MDA-MB-435 > 100 µM | Hs-578T > 100 µM | TK-10 > 100 µM | KM12 > 100 µM | NCI-H23 > 100 µM | Malme-3M > 100 µM | CCRF-CEM > 100 µM | HOP-92 > 100 µM | LOX IMVI > 100 µM | T47D > 100 µM | OVCAR-3 > 100 µM | OVCAR-4 > 100 µM | MDA-N > 100 µM | MOLT-4 > 100 µM | DU-145 > 100 µM | NCI-H460 32.4 µM | HCT-116 > 100 µM | HT-29 > 100 µM | SK-MEL-5 70.1 µM | HCC 2998 > 100 µM | COLO 205 > 100 µM | OVCAR-8 > 100 µM | BT-549 > 100 µM | OVCAR-5 > 100 µM | UACC-62 > 100 µM | UO-31 > 100 µM | SK-OV-3 > 100 µM | K562 > 100 µM | UACC-257 > 100 µM | SF-268 > 100 µM | NCI/ADR-RES > 100 µM | PC-3 > 100 µM | CAKI-1 > 100 µM | EKVX > 100 µM | NCI-H226 > 100 µM | M14 > 100 µM | NCI-H522 > 100 µM | MCF7 > 100 µM | SN12C > 100 µM | A549 > 100 µM | SK-MEL-28 > 100 µM | SW-620 > 100 µM
